Data taken from patent US8367644B2, “Methods and compounds useful to induce apoptosis in cancer cells” (The Burnham Institute, priority 2003, dated 2013).
Read-outs that look alike come from different tables or passages of the source. Values belong to the compound of their own block, whether it stands above or below them.

Assays:
[1] = system: MCF7 cell line (high expressor of Bcl-2/Bcl-xL); experiment: XTT dye reduction cell viability assay, MCF7
Experimental: (§1) To evaluate the cytotoxic activity of our compounds on human tumors cells, we tested their biological activities using XTT dye reduction assays using two breast cancer cell lines: MCF7 (high expressor of Bcl-2/Bcl-xL) and ZR75-1 (low expressor of Bcl-2/Bcl-xL).
The effects of the compounds studied in this paper on viability of tumor cells in culture were monitored by using XTT (Weislow et al., J. Natl. Cancer Inst., 81:577 (1989)) assays with MCF7 and ZR75-1 cell lines. MCF7 cells were grown in DMEM containing 10% fetal bovine serum, penicillin/streptomycin, supplemented with 10^−10 M insulin, 1 mM sodium pyruvate and glutamine. ZR75-1 cells were grown in RPMI containing 10% fetal bovine serum, penicillin/streptomycin, supplemented with HEPES buffer, 1 mM sodium pyruvate and glutamine. Cells were regularly tested for mycoplasma contamination. Cells were seeded triplicates at an initial cell density of 1,000 cells per well. Blank wells received no cells. […] Relative numbers of viable cells was determined by XTT assay. […] Then, the contents of each plate were mixed and optical densities were determined at a wavelength of 450 nm (OD450). Net OD450 was determined after subtracting OD450 of blank wells. […]

[2] = system: ZR75-1 cell line (low expressor of Bcl-2/Bcl-xL); experiment: XTT dye reduction cell viability assay, ZR75-1; conditions: ZR75-1, XTT; for IC50: read-out: IC50, cell viability, three days
Experimental: as §1
(§2) The effects of the compounds studied in this paper on viability of tumor cells in culture were monitored by using XTT (Weislow et al., J. Natl. Cancer Inst., 81:577 (1989)) assays with MCF7 and ZR75-1 cell lines. MCF7 cells were grown in DMEM containing 10% fetal bovine serum, penicillin/streptomycin, supplemented with 10^−10 M insulin, 1 mM sodium pyruvate and glutamine. ZR75-1 cells were grown in RPMI containing 10% fetal bovine serum, penicillin/streptomycin, supplemented with HEPES buffer, 1 mM sodium pyruvate and glutamine. Cells were regularly tested for mycoplasma contamination. Cells were seeded triplicates at an initial cell density of 1,000 cells per well. Blank wells received no cells. […] Relative numbers of viable cells was determined by XTT assay. Briefly, in a 96-well plate, we added 50 μl of a mixture of 1 mg/ml of XTT (Weislow et al., J. Natl. Cancer Inst., 81:577 (1989)) (2,3-bis(2-methoxy-4-nitro-5-sulfophenyl)-5-[(phenylamino)carbonyl]-2H-tetrazolium hydroxide) (Polysciences, Washington, Pa.) containing 0.025 mM PMS (phenazine methosulfate) to each well. The 96-well plates were re-incubated for an additional 4 hours to allow for XTT formazan production. Then, the contents of each plate were mixed and optical densities were determined at a wavelength of 450 nm (OD450). Net OD450 was determined after subtracting OD450 of blank wells. Low-passage HeLa cells (between passage number 10 and 20) were transfected with pcDNA3-Bcl-xL or control pcDNA3 plasmids using Lipofectamine Plus reagent (Invitrogen) and selected in medium containing 800 μg/ml of G418. Immunoblot analysis of Bcl-xL was accomplished as described (Krajanski 1996-Cancer Res) HeLa-transfectants were treated with various doses of Gossypol, Purpurogallin, and its derivatives (0, 1, 3, 10 and 100 μM).

[3] = target: T1, Bcl-xL (Homo sapiens, UniProt Q07817); experiment: Fluorescence polarization-based competitive binding assay (FPA) with fluorescein-labeled Bad peptide
T1 construct: made in house
T1 sequence (Q07817 whole entry): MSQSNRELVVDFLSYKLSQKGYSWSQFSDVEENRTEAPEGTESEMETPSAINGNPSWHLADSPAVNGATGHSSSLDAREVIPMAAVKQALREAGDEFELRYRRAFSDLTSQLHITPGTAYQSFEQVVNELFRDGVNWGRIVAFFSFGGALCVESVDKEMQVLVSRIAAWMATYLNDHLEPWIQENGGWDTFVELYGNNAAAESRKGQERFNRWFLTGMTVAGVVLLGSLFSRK
Experimental: FPA assays were conducted with a fluorescein-labeled Bad peptide ([sequence]-K(FITC)-FVD) (SEQ ID NO:1) (Synpep Corporation, Dublin, Calif.) using a LJL Analyst HT (Molecular Devices Co., Sunnyvale, Calif.). Dilution buffer for all stocks and samples was 50 mM Tris-Bis pH 7.4, 0.01% bovine gamma globulin. A series of two-fold dilutions of Gossypol were prepared, i.e., 100 μM, 50 μM, down to 0.1 μM in dilution buffer. To each tube was added a solution containing 30 nM of Bcl-xL and 4 nM fluoresceinated peptide. The tubes were incubated for 5 minutes at room temperature and 20 μl each of reaction mixture was transferred to 96-well black PS, HE Microplate (LJL Biosystems Co.). All assays were performed in quadruplicate, with blank wells receiving no Gossypol. Then, the plate was read for total intensity and polarization (in mP units) was measured. Controls included dose-responses measurements in absence of the proteins, to assess any interactions between the compounds and the FITC-BH3 peptide. Eventual effects were taken into account by subtraction.

[4] = previous cell-based assays; cited from earlier work
[5] = Combination of Apogossypol with fludarabine (FIG. 6, 7); assay type: cell-based
[6] = system: HeLa cells; experiment: HeLa cells viability assay; assay type: cell-based; conditions: Homo sapiens, read-out: IC50 (μM) HeLa
Experimental: as §1, §2

[7] = Table 1, green tea extracts, target Bcl-xL inferred from text and figure legends, read-out: IC50
[8] = Table 4, Purpurogallin derivatives, read-out: IC50 (μM) (Bcl-xL)
[9] = Table 2, black tea extracts, target Bcl-xL inferred from text and figure legends, read-out: IC50

SMILES: Cc1cc2c(C(C)C)c(O)c(O)c(C=O)c2c(O)c1-c1c(C)cc2c(C(C)C)c(O)c(O)c(C=O)c2c1O (racemic) [Gossypol]
- IC50 ([1]; read-out: IC50, cell viability, three days): 13.2 µM
- IC50 [2]: 8.4 µM

- IC50 [3, 7]: > 100 µM
SMILES: Oc1cc(O)c2c(c1)O[C@@H](c1ccc(O)c(O)c1)[C@@H](O)C2 [(+) Epicatechin (EC), (+) Epicatechin]

- IC50 [3, 7]: > 100 µM
SMILES: Oc1cc(O)c2c(c1)O[C@@H](c1ccc(O)c(O)c1)[C@H](O)C2 [(−) Catechin (C), (−) Catechin]

- IC50 [3, 7]: 0.29 µM
SMILES: O=C(O[C@@H]1Cc2c(O)cc(O)cc2O[C@H]1c1ccc(O)c(O)c1)c1cc(O)c(O)c(O)c1 [(−) Catechin-3-gallate (CG), (−) Catechin-3-gallate]

- IC50 [3, 7]: 0.24 µM
SMILES: O=C(O[C@@H]1Cc2c(O)cc(O)cc2O[C@@H]1c1ccc(O)c(O)c1)c1cc(O)c(O)c(O)c1 [(−) Epicatechin-3-gallate (ECG), (−) Epicatechin-3-gallate]

SMILES: Oc1cc(O)c2c(c1)O[C@H](c1cc(O)c(O)c(O)c1)[C@H](O)C2 [(−) Epigallocatechin (EGC), (−) Epigallocatechin]
- IC50 [3, 7]: > 100 µM

- IC50 [3, 7]: 0.98 µM
SMILES: O=C(O[C@@H]1Cc2c(O)cc(O)cc2O[C@@H]1c1cc(O)c(O)c(O)c1)c1cc(O)c(O)c(O)c1 [(−) Epigallocatechin-3-gallate (EGCG), (−) Epigallocatechin-3-gallate]

SMILES: Oc1cc(O)c2c(c1)O[C@@H](c1cc(O)c(O)c(O)c1)[C@H](O)C2 [(−) Gallocatechin (GC), (−) Gallocatechin]
- IC50 [3, 7]: > 100 µM

- IC50 [3, 7]: 0.63 µM
SMILES: O=C(O[C@@H]1Cc2c(O)cc(O)cc2O[C@H]1c1cc(O)c(O)c(O)c1)c1cc(O)c(O)c(O)c1 [(−) Gallocatechin-3-gallate (GCG), (−) Gallocatechin-3-gallate]

SMILES: Cc1cc2c(C(C)C)c(O)c(O)c(C=O)c2c(O)c1-c1c(C)cc2c(C(C)C)c(O)c(O)c(C=O)c2c1O [(−) Gossypol]
- effectiveness as a cytotoxic agent relative to (+) Gossypol [4]: ten times more effective than (+) Gossypol

SMILES: Cc1cc2c(C(C)C)c(O)c(O)cc2c(O)c1-c1c(C)cc2c(C(C)C)c(O)c(O)cc2c1O [Apogossypol (6C1), Apogossypol]
- effect in combination with fludarabine (F-ara-A) ([5]; FIG. 6): additive effect
- effect in combination with F-ara-A ([5]; FIG. 7): synergistic Effect

- IC50 [3, 8]: 73 µM
- IC50 ([6]; Table 4, HeLa cells viability): 51.5 µM
SMILES: CCOC(=O)c1cc(O)c(=O)c2cc(O)c(O)cc2c1 [Compound 5D1]
- IC50 [2]: ~50 µM

- IC50 [3, 8]: > 100 µM
- IC50 ([6]; Table 4, HeLa cells viability): > 100 µM
SMILES: COc1cc2cccc(OC)c(=O)c2c(OC)c1OC [Compound 6A1]

SMILES: COc1c(O)cc2cccc(OC)c(=O)c2c1OC [Compound 6A7]
- IC50 [3]: > 100 µM
- IC50 ([6]; HeLa): > 100 µM

- IC50 [3, 8]: 7.4 µM
- IC50 ([6]; Table 4, HeLa cells viability): 22.9 µM
SMILES: O=C(O)c1cc(O)c(=O)c2cc(O)c(O)cc2c1 [Compound 1142]

- IC50 [3, 8]: 2.6 µM
SMILES: COC(=O)c1cc(O)c(=O)c2cc(O)c(O)cc2c1 [Compound 1163]

- IC50 ([6]; Table 4, HeLa cells viability): 6.5 µM
SMILES: O=c1c(O)cccc2cc(O)c(O)c(O)c12 [Purpurogallin]
- cytotoxic activity [1]: did not show appreciable activity
- competition for the BH3-binding pocket ([3]; FIG. 1 legend): compete for the BH3-binding pocket of Bcl-xL
- cytotoxic activity [2]: did not show appreciable activity

- IC50 [3, 9]: 0.55 µM
SMILES: O=c1c(O)cccc2c([C@H]3Oc4cc(O)cc(O)c4C[C@H]3O)cc(O)c(O)c12 [Theaflavanin]

- IC50 [3, 9]: 0.6 µM
SMILES: O=C(O[C@H]1Cc2c(O)cc(O)cc2OC1c1cc(O)c(=O)c2c(O)c(O)cc([C@H]3Oc4cc(O)cc(O)c4C[C@H]3O)c2c1)c1cc(O)c(O)c(O)c1 (stereo partly drawn) [Theaflavin-3′-gallate]

- IC50 [3, 9]: 1.05 µM
SMILES: O=c1c(O)cc([C@H]2Oc3cc(O)cc(O)c3C[C@H]2O)cc2c([C@H]3Oc4cc(O)cc(O)c4C[C@H]3O)cc(O)c(O)c12 [Theaflavin]
